Assay [1] deals with T1, JAK3 (Homo sapiens, UniProt P52333).
T1 sequence (P52333 1-1124): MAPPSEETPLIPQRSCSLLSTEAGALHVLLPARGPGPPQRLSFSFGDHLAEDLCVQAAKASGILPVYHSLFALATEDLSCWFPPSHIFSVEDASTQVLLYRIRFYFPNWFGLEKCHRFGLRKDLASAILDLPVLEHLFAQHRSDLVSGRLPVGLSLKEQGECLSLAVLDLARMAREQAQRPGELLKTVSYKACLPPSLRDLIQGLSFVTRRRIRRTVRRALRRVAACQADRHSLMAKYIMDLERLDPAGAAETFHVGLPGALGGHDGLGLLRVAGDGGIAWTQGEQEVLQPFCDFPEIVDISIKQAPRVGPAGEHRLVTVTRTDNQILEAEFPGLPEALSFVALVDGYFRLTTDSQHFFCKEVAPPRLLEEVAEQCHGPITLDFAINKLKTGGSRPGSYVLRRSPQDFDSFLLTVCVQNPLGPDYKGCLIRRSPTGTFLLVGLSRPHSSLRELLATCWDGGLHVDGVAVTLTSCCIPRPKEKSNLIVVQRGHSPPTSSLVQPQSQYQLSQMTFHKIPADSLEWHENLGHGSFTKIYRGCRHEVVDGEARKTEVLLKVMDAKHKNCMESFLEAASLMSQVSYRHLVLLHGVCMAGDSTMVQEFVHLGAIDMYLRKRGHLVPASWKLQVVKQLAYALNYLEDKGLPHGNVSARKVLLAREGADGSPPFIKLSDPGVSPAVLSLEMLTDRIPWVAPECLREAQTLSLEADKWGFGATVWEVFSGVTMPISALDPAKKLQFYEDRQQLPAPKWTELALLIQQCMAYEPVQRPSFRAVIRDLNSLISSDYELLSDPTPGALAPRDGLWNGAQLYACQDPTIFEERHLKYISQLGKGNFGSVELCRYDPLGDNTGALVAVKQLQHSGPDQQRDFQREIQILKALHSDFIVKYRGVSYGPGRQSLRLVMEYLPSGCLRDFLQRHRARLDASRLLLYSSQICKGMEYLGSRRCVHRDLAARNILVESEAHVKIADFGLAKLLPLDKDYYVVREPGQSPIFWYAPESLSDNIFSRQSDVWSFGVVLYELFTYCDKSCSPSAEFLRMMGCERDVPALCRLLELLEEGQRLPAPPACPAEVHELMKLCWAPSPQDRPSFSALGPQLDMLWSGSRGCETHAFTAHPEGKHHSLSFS
Nature of the assay: Cell-based assay on Janus kinase inhibitors, JAK3 (GI50).

In another assay the target is JAK1 (Homo sapiens, UniProt P23458). The experiment in a line: JAK1 IC50 measurement. The assay is classed as biochemical.
A further assay deals with JAK2 (Homo sapiens, UniProt O60674). Nature of the assay: JAK2 IC50 measurement. The assay is classed as biochemical.
For assay [2], the target named is T1, JAK3. The experiment in a line: JAK3 IC50 measurement. In kind it is biochemical.
A further assay has as its target TYK2 (Homo sapiens, UniProt P29597). The experiment in a line: TYK2 IC50 measurement. In kind it is biochemical.

JAK1, sequence (P23458 whole entry): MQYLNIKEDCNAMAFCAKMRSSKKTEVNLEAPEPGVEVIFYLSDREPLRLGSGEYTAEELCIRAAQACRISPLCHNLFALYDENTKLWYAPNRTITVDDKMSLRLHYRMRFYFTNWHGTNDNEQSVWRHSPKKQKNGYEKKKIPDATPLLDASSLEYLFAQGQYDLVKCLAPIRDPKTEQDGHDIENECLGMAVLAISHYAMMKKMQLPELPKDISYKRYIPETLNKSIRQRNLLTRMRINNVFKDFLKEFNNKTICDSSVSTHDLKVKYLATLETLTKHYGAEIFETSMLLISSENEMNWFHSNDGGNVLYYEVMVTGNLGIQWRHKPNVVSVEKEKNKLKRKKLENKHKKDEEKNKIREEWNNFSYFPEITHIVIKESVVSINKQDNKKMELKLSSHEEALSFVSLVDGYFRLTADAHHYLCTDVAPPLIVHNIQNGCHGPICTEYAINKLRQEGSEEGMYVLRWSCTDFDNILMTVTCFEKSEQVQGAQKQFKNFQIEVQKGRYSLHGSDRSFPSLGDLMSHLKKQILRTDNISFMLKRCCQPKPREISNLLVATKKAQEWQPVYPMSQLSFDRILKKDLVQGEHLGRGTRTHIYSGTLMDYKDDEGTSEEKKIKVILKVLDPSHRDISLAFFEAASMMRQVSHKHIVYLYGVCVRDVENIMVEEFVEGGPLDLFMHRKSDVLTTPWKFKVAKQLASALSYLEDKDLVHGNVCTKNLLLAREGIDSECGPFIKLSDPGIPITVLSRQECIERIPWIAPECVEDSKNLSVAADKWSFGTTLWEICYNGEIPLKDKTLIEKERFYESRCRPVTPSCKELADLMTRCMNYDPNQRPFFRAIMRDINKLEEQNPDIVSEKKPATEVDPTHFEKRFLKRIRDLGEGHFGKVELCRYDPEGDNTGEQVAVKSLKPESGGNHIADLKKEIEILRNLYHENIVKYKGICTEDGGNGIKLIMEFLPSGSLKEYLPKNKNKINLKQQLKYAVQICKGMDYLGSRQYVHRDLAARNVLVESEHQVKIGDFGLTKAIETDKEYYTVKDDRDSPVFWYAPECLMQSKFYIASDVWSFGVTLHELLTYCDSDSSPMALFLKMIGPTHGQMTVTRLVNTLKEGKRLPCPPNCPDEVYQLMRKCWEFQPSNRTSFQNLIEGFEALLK
TYK2, sequence (P29597 whole entry): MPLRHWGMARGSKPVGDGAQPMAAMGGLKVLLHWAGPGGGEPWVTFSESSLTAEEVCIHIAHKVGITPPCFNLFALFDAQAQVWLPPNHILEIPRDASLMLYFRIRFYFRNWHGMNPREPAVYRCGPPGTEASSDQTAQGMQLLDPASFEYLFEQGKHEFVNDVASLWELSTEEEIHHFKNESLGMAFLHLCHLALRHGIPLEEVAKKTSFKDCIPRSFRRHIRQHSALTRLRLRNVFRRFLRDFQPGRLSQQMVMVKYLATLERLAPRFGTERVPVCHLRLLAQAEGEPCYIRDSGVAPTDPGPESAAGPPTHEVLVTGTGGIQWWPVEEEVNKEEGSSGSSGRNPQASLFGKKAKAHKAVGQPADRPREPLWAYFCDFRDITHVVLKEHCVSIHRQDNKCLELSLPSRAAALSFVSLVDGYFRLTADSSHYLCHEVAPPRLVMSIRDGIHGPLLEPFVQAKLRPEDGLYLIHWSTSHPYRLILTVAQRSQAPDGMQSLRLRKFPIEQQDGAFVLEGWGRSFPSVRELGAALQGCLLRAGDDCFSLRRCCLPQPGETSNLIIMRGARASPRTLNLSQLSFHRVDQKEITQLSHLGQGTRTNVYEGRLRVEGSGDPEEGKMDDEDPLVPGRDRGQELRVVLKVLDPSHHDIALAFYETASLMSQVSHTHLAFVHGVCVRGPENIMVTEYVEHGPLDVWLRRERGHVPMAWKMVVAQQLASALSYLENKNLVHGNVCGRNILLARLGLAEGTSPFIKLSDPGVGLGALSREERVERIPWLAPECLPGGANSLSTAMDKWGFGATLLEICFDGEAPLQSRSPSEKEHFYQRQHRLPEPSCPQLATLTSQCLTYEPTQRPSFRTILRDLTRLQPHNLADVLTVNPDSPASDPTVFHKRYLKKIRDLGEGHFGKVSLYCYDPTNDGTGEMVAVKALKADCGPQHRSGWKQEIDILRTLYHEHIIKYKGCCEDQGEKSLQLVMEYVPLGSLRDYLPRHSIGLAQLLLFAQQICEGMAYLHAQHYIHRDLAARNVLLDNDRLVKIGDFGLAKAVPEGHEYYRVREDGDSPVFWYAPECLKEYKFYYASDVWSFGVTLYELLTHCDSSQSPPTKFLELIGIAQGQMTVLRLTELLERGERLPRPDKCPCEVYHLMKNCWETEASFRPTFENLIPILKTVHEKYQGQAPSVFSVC
JAK2, sequence (O60674 whole entry): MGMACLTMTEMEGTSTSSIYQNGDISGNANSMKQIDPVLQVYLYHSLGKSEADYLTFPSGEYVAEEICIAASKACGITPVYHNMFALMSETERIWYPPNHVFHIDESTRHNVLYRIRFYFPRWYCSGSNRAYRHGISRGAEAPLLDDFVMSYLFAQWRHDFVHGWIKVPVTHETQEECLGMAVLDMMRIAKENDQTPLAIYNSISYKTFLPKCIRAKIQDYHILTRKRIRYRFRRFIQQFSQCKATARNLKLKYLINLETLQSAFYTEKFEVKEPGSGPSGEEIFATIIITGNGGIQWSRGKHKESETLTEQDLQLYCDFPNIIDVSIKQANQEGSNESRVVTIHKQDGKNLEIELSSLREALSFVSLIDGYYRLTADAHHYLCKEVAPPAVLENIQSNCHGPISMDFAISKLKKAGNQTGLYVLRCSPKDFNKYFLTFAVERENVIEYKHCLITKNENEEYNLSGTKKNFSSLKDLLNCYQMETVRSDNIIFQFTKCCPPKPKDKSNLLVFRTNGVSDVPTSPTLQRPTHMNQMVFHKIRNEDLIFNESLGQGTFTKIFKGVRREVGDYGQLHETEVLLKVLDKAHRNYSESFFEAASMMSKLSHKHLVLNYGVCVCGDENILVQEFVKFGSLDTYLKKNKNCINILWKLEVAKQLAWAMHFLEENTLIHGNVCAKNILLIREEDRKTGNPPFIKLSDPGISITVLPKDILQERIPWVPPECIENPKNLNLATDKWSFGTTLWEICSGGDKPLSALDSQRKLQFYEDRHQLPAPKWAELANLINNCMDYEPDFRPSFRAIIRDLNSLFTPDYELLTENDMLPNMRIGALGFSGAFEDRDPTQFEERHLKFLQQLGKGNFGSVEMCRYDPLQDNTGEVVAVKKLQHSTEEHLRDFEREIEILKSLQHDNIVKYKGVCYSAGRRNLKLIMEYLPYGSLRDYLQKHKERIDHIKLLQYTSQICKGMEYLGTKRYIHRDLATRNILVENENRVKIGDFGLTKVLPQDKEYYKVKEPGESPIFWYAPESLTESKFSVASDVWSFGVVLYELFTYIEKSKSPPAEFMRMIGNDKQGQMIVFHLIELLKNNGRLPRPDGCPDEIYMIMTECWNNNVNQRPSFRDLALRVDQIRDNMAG

Usually GI50 stands for the concentration that inhibits growth by half. `CNC(=O)c1cnc2[nH]ccc2c1N[C@@H]1CCN(Cc2cccc(Cl)c2)[C@@H](C)C1` (relative stereo) [Compound 20b, 4-((trans-1-(3-Chlorobenzyl)-2-methylpiperidin-4-yl)amino)-N-methyl-11H-pyrrolo[2,3-b]pyridine-5-carboxamide] showed a GI50 on JAK3 [1] of 8.24 µM.

Usually IC50 stands for the concentration needed to halve the response being measured. Low values mean greater potency in that assay, high ones weaker potency in that assay. As for `CNC(=O)c1cnc2[nH]ccc2c1NC1CC(NCc2ccccc2)C1` (stereo not drawn) [Compound 16a, 4-((3-(Benzylamino)cyclobutyl)amino)-N-methyl-1H-pyrrolo[2,3-b]pyridine-5-carboxamide], the 50% inhibitory concentration (IC50) against JAK1 came out at 0.13 µM.

On to `CNC(=O)c1cnc2[nH]ccc2c1NC1CC(NCc2cccc(Cl)c2)C1` (stereo not drawn) [Compound 16b, 4-((3-((3-Chlorobenzyl)amino)cyclobutyl)amino)-N-methyl-1H-pyrrolo[2,3-b]pyridine-5-carboxamide], for which the IC50 against JAK1 turned out to be 0.016 µM.

With `CNC(=O)c1cnc2[nH]ccc2c1NC1CC(NCc2ccc(Cl)cc2)C1` (stereo not drawn) [Compound 16c, 4-((3-((4-Chlorobenzyl)amino)cyclobutyl)amino)-N-methyl-1H-pyrrolo[2,3-b]pyridine-5-carboxamide], the IC50 on JAK1 turned out to be 0.0138 µM.

Consider `CNC(=O)c1cnc2[nH]ccc2c1NC1CC2CCC(C1)N2Cc1cccc(C#N)c1` (stereo not drawn) [Compound 17f, 4-((8-(3-Cyanobenzyl)-8-azabicyclo[3.2.1]octan-3-yl)amino)-N-methyl-1H-pyrrolo[2,3-b]pyridine-5-carboxamide], for which the results for the IC50 against JAK2, against JAK3 [2] and at TYK2 were 0.0588 µM, 0.0447 µM and 0.0922 µM, respectively.

`CNC(=O)c1cnc2[nH]ccc2c1N[C@H]1CCCN(Cc2cccc(Cl)c2)C1` [Compound 18a, (S)-4-((1-(3-Chlorobenzyl)piperidin-3-yl)amino)-N-methyl-1H-pyrrolo[2,3-b]pyridine-5-carboxamide] gave an IC50 against JAK1 of 1.87 µM.

In the case of `CNC(=O)c1cnc2[nH]ccc2c1N[C@H]1CCCN(Cc2cccc(OC)c2)C1` [Compound 18b, (S)-4-((1-(3-Methoxybenzyl)piperidin-3-yl)amino)-N-methyl-1H-pyrrolo[2,3-b]pyridine-5-carboxamide], the IC50 against JAK1 came out at 0.697 µM; on JAK2 it was 0.533 µM; at JAK3 [2] it was 3.43 µM; against TYK2 it was 1.79 µM. Further, the “Selectivity for JAK1 JAK2/JAK1” value on JAK2 came out at 0.764. In addition, the “Selectivity for JAK1 JAK3/JAK1” value at JAK3 [2] (ratio of IC50 values) is 4.92. The “Selectivity for JAK1 TYK2/JAK1” value on TYK2 is recorded as 2.56.
